Earlier results, collected in patent US8183365B2, “Synthetic method for ceratamine A and B and analogs thereof” (The Ohio State University, priority 2009, dated 2012).

Conditions: cell-based assay; natural products isolated from sponge Pseudoceratina sp.

| Molecule | antimitotic activity |
| --- | --- |
| CNc1nc2ccn(C)c(=O)c(Cc3cc(Br)c(OC)c(Br)c3)c-2n1 [ceratamine A, Ceratamine A] | possess antimitotic activity |
| Ceratamine B | possess antimitotic activity |
